From patent US9538759B2, “Chemical compositions and methodology to enhance plant growth and development” (priority 2013, dated 2017)

How the values were obtained:
Format in all cases: in vivo
[1] = tested on: seed; test: Replicated field plots comparing two lipoxygenase inhibitors as seed treatments, Safford, Arizona; conditions: for Germination % / Seedling Ht. (cm) / Surviving Stand %: inhibitor coated at 2.0 g per kg dry seed; for Germination % / Seedling Ht. (cm) / Surviving Stand % / Emergence Coeff.: fungicide co-treatment, mean ± standard error; for Emergence Coeff.: smaller coefficient = faster seedling emergence, 2.0 g per kg dry seed
Text: The presence of lipoxygenase isoenzymes has always been considered a necessary enzymatic constituent of seed, with the enzyme especially predominant in oil seeds. The detrimental effects of lipoxygenase activity on the viability and storage attributes of seeds have been reported by a number of authors. (Leopold; Parrish; Pfeiffer, et al.: and Hajika, et al.)
Propyl gallate is the inhibitor and antioxidant of choice for inclusion in the improvement of U.S. Pat. No. 4,209,316 described in this application. […] Selected location: Safford, Arizona Experimental Research Station. Each data entry represents the mean of replicated random samples plus or minus the standard error. The smaller the emergence coefficient, the faster the speed of seedling emergence from the soil. All treatments except the first control received a fungicide co-treatment. Lipoxygenase inhibitors were coated on the seed at a rate of 2.0 grams per kilogram of dry seed.

[2] = tested on: seeds; test: Classical antioxidants applied to seeds at much higher concentrations
[3] = tested on: Acala type cottons; test: Harvested seed cotton weight of container grown cottons, Tucson, Ariz.
Text: Table three illustrates the comparative advantage of the combination of buffered AMP and propyl gallate liquid formulation applied to two sets of Acala type cottons container grown in Tucson, Ariz. An extended harvest period was possible. Seed cotton was hand picked over several weeks. Bolls with fiber and seed were dried, individually weighed, and treatments were separated and bulked together. Osmocote complete fertilizer was applied twice—at two and four weeks—following the chemical formulation applications.

| Compound | Germination % [1] | Seedling Ht. (cm) [1] | Surviving Stand % [1] | effectiveness as lipoxygenase inhibitor seed treatment ([1]; seed treatment with inhibitor alone) | Emergence Coeff. [1] | enhancement of seed germination and viability traits [2] | Combined weight of harvested seed cotton per group (in grams) ([3]; group one) | Combined weight of harvested seed cotton per group (in grams) ([3]; group two) |
| --- | --- | --- | --- | --- | --- | --- | --- | --- |
| Oc1ccc(O)cc1 [Hydroquinone] | 22.9 ± 3.1% | 16.6 ± 0.4 cm | 60.6 ± 3.5% | effective | 0.50 ± 0.04 |  |  |  |
| vitamin E |  |  |  |  |  | no enhancement |  |  |
| Cc1cc(C(C)(C)C)c(O)c(C(C)(C)C)c1 [butylated hydroxylated toluene] |  |  |  |  |  | no enhancement |  |  |
| CCCOC(=O)c1cc(O)c(O)c(O)c1 [Propyl Gallate, propyl gallate] | 23.0 ± 2.3% | 17.3 ± 0.6 cm | 57.8 ± 3.0% |  | 0.52 ± 0.03 |  | 640 grams | 423 grams |
| O=C1O[C@H]([C@@H](O)CO)C(O)=C1O [ascorbic acid] |  |  |  |  |  | no enhancement |  |  |
